Entries after “also recorded” stand apart in the source; their conditions may differ.

The target in one assay is T1, VLDLr (Homo sapiens, UniProt P98155).
T1 construct: purchased R&D 8444-VL
As to the kind of experiment: ELISA cell-free binding of RELN variants to VLDLr. As for the experimental part: (§1) Enzyme-linked immunosorbent assay (ELISA) was used to quantify changes in binding of RELN variants (media-derived full-length or CTR-RELN) to either VLDLr or ApoEr2 following an optimized version of a previously published protocol (6). Briefly, ELISA strips (DY008, R&D Systems) were coated with one ng/μL (100 μL/well) of VLDLr (8444-VL, R&D) or ApoEr2 (TP320903, OnGene) receptors diluted in 25 mM Tris HCl, 140 mM NaCl, […], two mM CaCl2), pH 7.4 (TBS-C buffer). After 18 h at four ° C. incubation, plates were blocked one h with three % BSA (22070008-6, Bioworld), 0.05% Tween-20 (Sigma Aldrich) TBS-C buffer. We assessed binding via incubation with 100 μL/well of serial dilutions of recombinant RELN protein (Ser1221-Gln2666, 8546-MR-050, R&D) or RELN variants in TBS-C buffer for one hour at room temperature. For detection, we used goat anti-mouse RELN primary antibody (LS-C793521-100, LS-Bio, 1:2,000, 100 μL/well) as primary antibody for one h at R.T. and (1:10,000; 100 μL/well, donkey anti-goat IgG H&L, HRP, ab6885, Abcam) as secondary antibody for 30 min. at R.T. Between each of the previous steps, plates were washed four times with TBS-C buffer (200 μL/well). Plates were washed three times prior to initiating the colorimetric reaction (DY008, R&D Systems). Stop solution (50 μL/well, DY008, R&D Systems) was added upon five min. incubation and the absorbance of the samples was measured at 450 nm using the Synergy 2 microplate reader (BioTek Instruments). Processing and analysis of the data was done using Gen5 1.11 software and GraphPad Prism, respectively.

The next assay deals with T2, APOER2 (Homo sapiens, UniProt Q14114).
T2 construct: purchased OnGene (so in the source)
T2 sequence (Q14114 33-963): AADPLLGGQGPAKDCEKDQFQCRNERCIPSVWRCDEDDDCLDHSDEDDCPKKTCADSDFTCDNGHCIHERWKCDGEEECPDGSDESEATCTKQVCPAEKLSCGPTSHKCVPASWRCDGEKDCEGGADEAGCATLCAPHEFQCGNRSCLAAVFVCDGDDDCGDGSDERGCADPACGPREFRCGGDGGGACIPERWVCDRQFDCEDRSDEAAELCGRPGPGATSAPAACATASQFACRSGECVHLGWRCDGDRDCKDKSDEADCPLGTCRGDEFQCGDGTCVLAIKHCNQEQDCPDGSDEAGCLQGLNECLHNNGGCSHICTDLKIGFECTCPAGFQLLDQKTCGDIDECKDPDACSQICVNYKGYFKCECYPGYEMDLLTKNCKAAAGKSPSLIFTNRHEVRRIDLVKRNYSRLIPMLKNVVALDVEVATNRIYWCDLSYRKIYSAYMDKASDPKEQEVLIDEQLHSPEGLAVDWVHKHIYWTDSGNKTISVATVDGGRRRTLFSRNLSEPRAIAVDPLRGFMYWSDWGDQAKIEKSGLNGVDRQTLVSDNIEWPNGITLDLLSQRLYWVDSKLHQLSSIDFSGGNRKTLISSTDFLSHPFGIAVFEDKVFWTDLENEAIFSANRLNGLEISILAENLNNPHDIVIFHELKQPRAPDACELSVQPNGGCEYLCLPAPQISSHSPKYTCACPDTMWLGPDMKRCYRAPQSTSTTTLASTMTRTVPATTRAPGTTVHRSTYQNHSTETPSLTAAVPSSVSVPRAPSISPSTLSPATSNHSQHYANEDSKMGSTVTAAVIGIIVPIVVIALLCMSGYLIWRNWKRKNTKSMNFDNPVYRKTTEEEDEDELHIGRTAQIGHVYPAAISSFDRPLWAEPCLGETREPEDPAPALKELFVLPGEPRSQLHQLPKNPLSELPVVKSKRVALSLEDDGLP
As to the kind of experiment: ELISA cell-free binding of RELN variants to ApoEr2. As for the experimental part: as §1
In general terms: ELISA stands for enzyme-linked immunosorbent assay.

A short description of assay [1]: Surface plasmon resonance (SPR) binding of CTR-RELN peptides to heparin-coated chip. The note with it: SPR kinetic constants. The procedure: Surface plasmon resonance assay (SPR) was used for performing binding kinetics using a Biacore 3000 Instrument (GE Healthcare) at 25° C. following previously published protocols (7 24) as fee-for-service by Precision Antibody (Maryland, USA). Biotin-labeled heparin (B9806, Sigma Aldrich) was covalently linked to streptavidin-coated chip and unoccupied sites were blocked with biocytin. Antigen was flowed over the chip using a range of single analyte concentrations prepared in DPBS buffer and using a flow rate of 30 μL/min. Binding of antigen to the ligand was monitored in real time to obtain on (ka) and off (kd) rates. The equilibrium constant (KD) was calculated from the observed ka and kd. Accuracy of the SPR analysis was determined via Chi square (χ2) analysis as described in the statistical analysis section. We included in the analyses the WT and H3447R peptides and peptides with the hypothetical H3447D change ([…])(SEQ ID NO:57) and the H3447K change ([…])(SEQ ID NO:58), also produced and purified by Innovagen (Sweden).
Surface plasmon resonance assay (SPR) was used for performing binding kinetics using a Biacore 3000 Instrument (GE Healthcare) at 25° C. following previously published protocols 34 24 fee-for-service by Precision Antibody (Maryland, USA). Heparin was covalently linked to streptavidin coated chip at 13 response units (RU) concentration and unoccupied sites were blocked with biocytin. Antigen was flowed over the chip using a range of single analyte concentrations prepared in DPBS buffer and using a flow rate of 30 μL/min. Binding of antigen to the ligand was monitored in real time to obtain on (ka) and off (kd) rates. The equilibrium constant (KD) was calculated from the observed ka and kd. Accuracy of the SPR analysis was determined via Chi square (2) analysis as described in the statistical analysis section.

The nature of assay [2]: Heparin HPLC, peak retention time in KCl elution. In kind it is binding. The note with it: isocratic 1M KCl elution, long and short peptides. The procedure: […] 50 μl of 0.3 μg/μL uncleaved or cleaved WT Reelin peptide was used at 0.3 ml/min in 0.15MKCl, 10 mM PBS. 0-13.5 min: 0.15M KCl to load sample, 13.5-14.5 min: ramp to 0.5M KCl, 14.5-24.5 min: 0.5-1M KCl gradient (ramp), 24.5-45 min: 1M KCl (isocratic elution), 45-55 min: 1M KCl at 0.6 ml/min (wash), 55.0-56.0 min: ramp to 0.15M KCl at 0.3 ml/min, 56.0-59.0 min: 0.15M KCl (reset column). Fluorescence Intensities were measured at an excitation wavelength of 260 nm and emission wavelength of 290 nm, based on fluorescence properties of aromatic amino acids. To assess fluorescence properties of peptides, 15 ul of ˜0.6 ug/mL of peptide was diluted in 500 μL of 0.15MKCl, 10 mM PBS, and peak excitation and emission of peptides was calculated from the 2D graphical data.
The column chromatography method was adapted from previous research from the laboratory (2). Based on the column chromatography data, the initial protocol used a NaCl gradient from 0-1 M and a 5M salt wash to reset the HPLC column. However, the high salt gradient was corrosive to the HPLC machine parts. Therefore, KCl was considered because the […]. A lower molar concentration of a buffer with KCl could be used to disrupt heparin—Reelin CTR interactions compared to NaCl to help keep the HPLC pumps free of residual salts and potential corrosion. Since a lower concentration of salt was used, the amount of time needed at an […] hold of 1M KCl was extended until the peptide signal could not be detected before the column was equilibrated for the next sample.

Another assay has as its target T3, Aβ42 (Homo sapiens, UniProt P05067).
T3 construct: SensoLyte ThT O-Amyloid (1-42) Aggregation kit
The assay can be described thus: Thioflavin T (ThT) Aβ aggregation assay. In kind it is biochemical. The note with it: Aβ42 55 μM, 10 μM peptide; vs Aβ alone. As for the experimental part:
Therefore, the ThT assay can be used to quantify AB aggregation using previously developed methods (40).
We incubated CTR-RELN with Aβ and monitored aggregation using a ThioflavinT fluorescence assay normalized to the maximum ThT emission of Aβ only. We also assayed Aβ in the presence of morin, a known inhibitor (41), as a […]. Long and short WT and H3447R RELN CTR peptides were included to better understand the potential role of the H3447R mutation in amyloid pathology (FIGS. 14 and 15. Negative controls included long and short RELN CTR peptides with neutrally charged AAs (histidines) in place of basic AAs in the alpha- and beta-GAG binding sites.
A Thioflavin T (ThT) assay was also performed using synthetic Reelin peptides to assess the differential effects of these proteins on Aβ42 aggregation in vitro using Thioflavin T (SensoLyte ThT O-Amyloid (1-42) Aggregation kit, catalog no. ΔS-72214). Aβ42 was added to a final concentration of 55 μM in solutions of 10 μM of Reelin peptide variants in a transparent, no-binding 96-well plate. Samples were then mixed with 2 mM Thioflavin T dye and fluorescence was read at excitation wavelength/emission wavelength (Ex/Em)=440/484 nm at intermittent time intervals over 2 h. The plate was kept at 37° C. with 15 s shaking between reads. […] In general, it appears that the RELN Cterm domain is highly unstructured. […] If the mini-RELN includes the C-term domain only without a receptor binding domain then the protection will not involve signaling, but will still involve direct interactions with tau. If the mini-RELN includes the C-term domain and the receptor binding domain, it will have at least two protective mechanisms, namely RELN signaling and direct interactions with tau.

Another assay deals with T4, NRP1 (Homo sapiens, UniProt O14786).
T4 construct: purchased R&D 3870-N1-025
T4 sequence (O14786 22-644 isoform O14786-2 limits assumed): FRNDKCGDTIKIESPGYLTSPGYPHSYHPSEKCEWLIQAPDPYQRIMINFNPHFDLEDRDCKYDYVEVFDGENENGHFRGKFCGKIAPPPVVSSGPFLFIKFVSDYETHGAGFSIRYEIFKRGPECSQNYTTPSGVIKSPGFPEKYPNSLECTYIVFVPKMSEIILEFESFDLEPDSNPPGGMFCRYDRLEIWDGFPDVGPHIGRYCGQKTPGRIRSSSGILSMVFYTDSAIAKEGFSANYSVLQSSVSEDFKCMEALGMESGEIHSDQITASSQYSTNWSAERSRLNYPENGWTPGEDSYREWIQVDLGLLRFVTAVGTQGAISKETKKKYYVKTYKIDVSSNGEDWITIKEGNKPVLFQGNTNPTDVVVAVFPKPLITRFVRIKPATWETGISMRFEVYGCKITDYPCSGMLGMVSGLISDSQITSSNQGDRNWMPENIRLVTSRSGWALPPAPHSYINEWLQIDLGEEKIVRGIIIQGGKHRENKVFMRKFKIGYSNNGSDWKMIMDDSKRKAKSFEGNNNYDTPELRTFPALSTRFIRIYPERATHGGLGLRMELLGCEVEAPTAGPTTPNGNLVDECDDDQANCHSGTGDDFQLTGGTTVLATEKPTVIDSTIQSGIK
The assay can be described thus: Bio-layer interferometry (BLI) of CTR-RELN-NRP-1 interactions. It counts as binding. As for the experimental part: Bio-layer interferometry (BLI) was additionally used to assess NRP1-protein kinetics at 30° C. and 1000 rpm agitation. 1 mg/mL NRP1 (R&D 3870-N1-025) was biotinylated at a 1:2 molar ratio, desalted, and immobilized on the SA biosensor tip (Pall ForteBio) surface. This was followed by 1) 180 seconds baseline buffer diluent, 2) loading of the ligand (NRP1), 3) 180 seconds baseline buffer diluent, 4) 240 seconds association (analyte), and 5) 300 seconds disassociation in assay buffer. Assay buffer: SD Buffer (pH7.4 PBS, 0.05% tween20, 0.01% BSA).
The experimental data were fit with the 1:1 binding model and analyzed with global fitting using Octet Data Analysis software to calculate KD.
Bio-layer interferometry (BLI) was used to assess NRP1-protein kinetics at 30° C. and 1000 rpm agitation using previously published methods. 1 mg/mL NRP1 (R&D 3870-N1-025) was biotinylated at a 1:2 molar ratio, desalted, and immobilized on the SA biosensor tip (Pall ForteBio) surface. This was followed by 1) 180 seconds baseline buffer diluent, 2) loading of the ligand (NRP1), 3) 180 seconds baseline buffer diluent, 4) 240 seconds association (analyte), and 5) 300 seconds disassociation in assay buffer. Assay buffer: SD Buffer (pH7.4 PBS, 0.05% tween20, 0.01% BSA).
In general terms: BLI is a label-free optical method that tracks binding on a fibre tip over time.

T3 sequence (P05067 672-713 limits assumed): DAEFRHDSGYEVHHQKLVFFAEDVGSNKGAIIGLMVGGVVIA

In the case of “RELN WT: full-length murine recombinant RELN, wild type”, the “binding to VLDLr” value in the assay with VLDLr is listed as “did not differ”. In addition, the “binding to APOER2” value with APOER2 is listed as “did not differ”.
Consider “RKQNYMMNFSRQHGLRDFYNRRRRSLRRYP [H3447D long]”, for which the “heparin affinity/interaction relative to WT, in words” value in assay [1] is listed as “reduced heparin interactions”. In assay [2], the “peak retention time on heparin HPLC” value is recorded as “significantly less interaction; also recorded: earlier peak retention time”. For the same substance, at Aβ42, the “Aβ aggregation (ThT fluorescence)” value is “similarly decrease aggregation”.
On to “RKQNYMMNFSRQHGLRKFYNRRRRSLRRYP [H3447K long]”, for which the “heparin affinity/interaction relative to WT, in words” value in assay [1] is recorded as “minimal effects”. Further, in assay [2], the “peak retention time on heparin HPLC” value is listed as “increased later peak retention times”. At Aβ42, the “Aβ aggregation (ThT fluorescence)” value is on record as “similarly decrease aggregation”.
The term Kd denotes the free concentration of one partner at which half of the binding sites on the other are occupied at equilibrium, for simple one-to-one binding. Low values mean tighter binding, high ones weaker binding. On to “Vascular endothelial growth factor [VEGF, reference compound]”, for which, at NRP1 (immobilized biotinylated NRP1), the ka amounted to 272000 M⁻¹ s⁻¹ and the kd was determined as 0.0015 s⁻¹. Binding on NRP1 (immobilized biotinylated NRP1, 30° C., 1:1 model) was put at a Kd of 5.53 nM.
